From PubChem BioAssay AID180 (DTP/NCI, 2004)
Where “and” joins values, the source holds several entries; their conditions need not be identical. Equal values may be shown once.

System: BDF1 mice, Adenocarcinoma 755 s.c., tumor weight T/C
Experiment: NCI In Vivo Anticancer Drug Screen. Data for tumor model Adenocarcinoma 755 (subcutaneous) in B6D2F1 (BDF1) mice
Settings: endpoint: mean tumor weight, higher = larger tumour
Protocol: The antitumor activity of compounds was measured in mice bearing transplantable tumors. Survival or tumor size were measured and the results are expressed as the measurement made in the treated group (T) divided by the measurement made in the vehicle treated control group (C). The tumor model used in this assay is Adenocarcinoma 755 (subcutaneous) in B6D2F1 (BDF1) mice

[1] = dose: 30.0 mg/kg/injection, schedule: Q01DX011 (ip), vehicle: methylcellulose (MC)
[2] = dose: 7.0 mg/kg/injection, schedule: Q01DX011 (ip), vehicle: carboxymethylcellulose (CMC)

CC(C)CCn1cnc2c(SCc3ccccc3F)nc(N)nc21
T/C [1]: 62 % of control | T/C (dose: 100.0 mg/kg/injection, schedule: Q01DX011 (ip), vehicle: methylcellulose (MC)): 65 % of control | T/C (dose: 300.0 mg/kg/injection, schedule: Q01DX011 (ip), vehicle: methylcellulose (MC)): 10 % of control

CC1CCN2CCC(O)C12 (stereo not drawn)
T/C [2]: 98 % of control

CC(CNC(=O)CCBr)CNC(=O)CCBr
T/C (dose: 113.0 mg/kg/injection, schedule: Q01DX011 (ip), vehicle: carboxymethylcellulose (CMC)): 51 % of control

CC(=O)OCC(=O)[C@@]1(O)CC[C@H]2[C@@H]3C[C@H](C)C4=CC(=O)CC[C@]4(C)[C@H]3[C@@H](O)C[C@@]21C
T/C (dose: 2.75 mg/kg/injection, schedule: Q01DX011 (sc), vehicle: steriod suspending solution): 73 % of control | T/C (dose: 5.5 mg/kg/injection, schedule: Q01DX011 (sc), vehicle: steriod suspending solution): 55 % of control and 71 % of control | T/C (dose: 22.0 mg/kg/injection, schedule: Q01DX011 (sc), vehicle: water): 19 % of control | T/C (dose: 44.0 mg/kg/injection, schedule: Q01DX011 (sc), vehicle: steriod suspending solution): 42 % of control | T/C (dose: 44.0 mg/kg/injection, schedule: Q01DX011 (sc), vehicle: water): 14 % of control and 20 % of control | T/C (dose: 87.0 mg/kg/injection, schedule: Q01DX011 (sc), vehicle: steriod suspending solution): 50 % of control | T/C (dose: 87.5 mg/kg/injection, schedule: Q01DX011 (sc), vehicle: water): 11 % of control and 15 % of control | T/C (dose: 175.0 mg/kg/injection, schedule: Q01DX011 (sc), vehicle: steriod suspending solution): 25 % of control | T/C (dose: 175.0 mg/kg/injection, schedule: Q01DX011 (sc), vehicle: water): 3 % of control and 4 % of control

CCCCn1cnc2c(SCc3ccccc3Cl)nc(N)nc21
T/C (dose: 62.5 mg/kg/injection, schedule: Q01DX011 (ip), vehicle: methylcellulose (MC)): 24 % of control | T/C (dose: 125.0 mg/kg/injection, schedule: Q01DX011 (ip), vehicle: methylcellulose (MC)): 13 % of control | T/C (dose: 250.0 mg/kg/injection, schedule: Q01DX011 (ip), vehicle: methylcellulose (MC)): 5 % of control

C1OC1C1CO1 (stereo not drawn)
T/C (dose: 3.05 mg/kg/injection, schedule: Q01DX011 (ip), vehicle: carboxymethylcellulose (CMC)): 83 % of control | T/C (dose: 3.5 mg/kg/injection, schedule: Q01DX011 (ip), vehicle: carboxymethylcellulose (CMC)): 77 % of control | T/C [2]: 72 % of control | T/C (dose: 8.13 mg/kg/injection, schedule: Q01DX011 (ip), vehicle: carboxymethylcellulose (CMC)): 62 % of control and 68 % of control | T/C (dose: 14.0 mg/kg/injection, schedule: Q01DX011 (ip), vehicle: carboxymethylcellulose (CMC)): 110 % of control | T/C (dose: 24.4 mg/kg/injection, schedule: Q01DX011 (ip), vehicle: carboxymethylcellulose (CMC)): 24 % of control and 33 % of control and 45 % of control | T/C (dose: 28.0 mg/kg/injection, schedule: Q01DX011 (ip), vehicle: carboxymethylcellulose (CMC)): 61 % of control

CN1C=NNc2ncnc(Cl)c21
T/C (dose: 125.0 mg/kg/injection, schedule: Q01DX011 (ip), vehicle: carboxymethylcellulose (CMC)): 166 % of control | T/C (dose: 250.0 mg/kg/injection, schedule: Q01DX011 (ip), vehicle: carboxymethylcellulose (CMC)): 161 % of control

Clc1nc(Cl)c2ncn(C3CCCO3)c2n1 (stereo not drawn)
T/C (dose: 33.0 mg/kg/injection, schedule: Q01DX011 (ip), vehicle: methylcellulose (MC)): 65 % of control

O=C(O)Cn1cccc1
T/C (dose: 250.0 mg/kg/injection, schedule: Q01DX011 (ip), vehicle: other): 80 % of control | T/C (dose: 500.0 mg/kg/injection, schedule: Q01DX011 (ip), vehicle: other): 98 % of control | T/C (dose: 4000.0 mg/kg/injection, schedule: Q01DX011 (ip), vehicle: other): 70 % of control

Nc1nc(=S)c2ncn(C3CCCO3)c2[nH]1 (stereo not drawn)
T/C (dose: 0.7 mg/kg/injection, schedule: Q01DX011 (ip), vehicle: carboxymethylcellulose (CMC)): 71 % of control | T/C (dose: 1.5 mg/kg/injection, schedule: Q01DX011 (ip), vehicle: carboxymethylcellulose (CMC)): 60 % of control | T/C (dose: 3.0 mg/kg/injection, schedule: Q01DX011 (ip), vehicle: carboxymethylcellulose (CMC)): 38 % of control | T/C (dose: 7.5 mg/kg/injection, schedule: Q01DX011 (ip), vehicle: carboxymethylcellulose (CMC)): 2 % of control | T/C (dose: 15.0 mg/kg/injection, schedule: Q01DX011 (ip), vehicle: carboxymethylcellulose (CMC)): 2 % of control

NC(=O)c1ccc(NC(=O)/C=C/C(=O)Nc2ccc(C(N)=O)cn2)nc1
T/C (dose: 0.47 mg/kg/injection, schedule: Q01DX011 (ip), vehicle: carboxymethylcellulose (CMC)): 75 % of control | T/C (dose: 0.94 mg/kg/injection, schedule: Q01DX011 (ip), vehicle: carboxymethylcellulose (CMC)): 69 % of control | T/C (dose: 1.87 mg/kg/injection, schedule: Q01DX011 (ip), vehicle: carboxymethylcellulose (CMC)): 28 % of control

O=C(N/N=C\c1ccc(Br)cc1)c1ccncc1
T/C [1]: 52 % of control | T/C (dose: 60.0 mg/kg/injection, schedule: Q01DX011 (ip), vehicle: methylcellulose (MC)): 52 % of control | T/C (dose: 120.0 mg/kg/injection, schedule: Q01DX011 (ip), vehicle: methylcellulose (MC)): 62 % of control | T/C (dose: 240.0 mg/kg/injection, schedule: Q01DX011 (ip), vehicle: methylcellulose (MC)): 37 % of control | T/C (dose: 500.0 mg/kg/injection, schedule: Q01DX011 (ip), vehicle: methylcellulose (MC)): 64 % of control
